Reference: the NIST ThermoML archive (doi:10.1021/je050473r)
± gives the expanded uncertainty stated by the source.

Conditions: Liquid
[1] = 303.15 K, Closed cell (Static) method
[2] = 353.15 K, Closed cell (Static) method
[3] = 373.1 K, Closed cell (Static) method
[4] = 413.15 K, Closed cell (Static) method

**Q.** With `ClCCCl` [1,2-dichloroethane] as the compound, how does the “vapor or sublimation pressure” value [1] read?
**A.** The value was 13.28 ± 1 kPa.

**Q.** What about the “vapor or sublimation pressure” value [2] of the same compound?
**A.** The value was 90.9 ± 1 kPa.

**Q.** Which results are given for `CC(C)CC(C)(C)C` [2,2,4-trimethylpentane]?
**A.** vapor or sublimation pressure [3]: 103.49 ± 1.1 kPa; vapor or sublimation pressure [4]: 282.8 ± 1.4 kPa

**Q.** Which “vapor or sublimation pressure” value [3] does the source give for `CCc1cccs1` [2-ethylthiophene] here?
**A.** The value was 33.26 ± 1 kPa.

**Q.** And the “vapor or sublimation pressure” value [4]?
**A.** The value was 111.4 ± 1.1 kPa.

**Q.** With `Cc1cccs1` [2-methylthiophene] as the compound, how does the “vapor or sublimation pressure” value [3] read?
**A.** The value was 69.87 ± 1.1 kPa.

**Q.** What about the “vapor or sublimation pressure” value [4] of the same compound?
**A.** Its value is 209.8 ± 1.2 kPa.

**Q.** With `Cl/C=C/Cl` [(E)-1,2-dichloroethene] as the compound, how does the “vapor or sublimation pressure” value [1] read?
**A.** The value was 53.33 ± 1.1 kPa.

**Q.** And the “vapor or sublimation pressure” value [2]?
**A.** Its value is 269.9 ± 1.3 kPa.

**Q.** With `N#CC1CC1` [cyclopropanecarbonitrile] as the compound, how does the “vapor or sublimation pressure” value (373.1 K) read?
**A.** The value was 35.2 ± 1 kPa.

**Q.** What about the “vapor or sublimation pressure” value (408.15 K) of the same compound?
**A.** Its value is 102.2 ± 1.2 kPa.

**Q.** What does the source list for `C=CCCCCCC` [oct-1-ene]?
**A.** vapor or sublimation pressure [3]: 53.82 ± 1.1 kPa; vapor or sublimation pressure [4]: 165.9 ± 1.2 kPa

**Q.** For `O` [water], which “vapor or sublimation pressure” value (373.1 K) is on record?
**A.** Its value is 101.4 ± 1.3 kPa.

**Q.** What about the “vapor or sublimation pressure” value (408.15 K) of the same compound?
**A.** The value was 312.4 ± 2.1 kPa.
